Data reported in patent publication US5849560A, “Proteases causing degradation of amyloid β-protein precursor” (priority 1993, dated 1998).
Non-standard residues stand in square brackets, D forms with d. Residues, ends and D or L forms follow the SMILES beside them. *: point of attachment. Sta = CC(C)C[C@H](N)[C@@H](O)CC(=O)O; Isovaleryl = CC(C)CC(=O)*; Cbz = O=C(OCc1ccccc1)*; CH2F = FC*

Columns and labels:
[1] = target: T1, "Met cut" metalloprotease (AD metalloprotease) purified from AD brain homogenate (Homo sapiens, UniProt P52888); assay: Effect of additives on synthetic peptide substrate (P1) degrading activity of the purified Met cut metalloprotease; assay type: biochemical; settings: for effect on metalloprotease activity (in words): concentrations as in Table II, divalent ions at 2 mM; for remaining activity at 150 µM: reagent conc. 0.15 mM; for remaining activity at 5000 µM: reagent conc. 5.0 mM; for remaining activity at 140 µM: reagent conc. 0.14 mM; for remaining activity at 200 µM: reagent conc. 0.2 mM
T1 construct: isolate and purify an AD metalloprotease from AD brain homogenate; from tissue; host or cells: brain of Alzheimer's disease patients
T1 sequence (P52888 whole entry): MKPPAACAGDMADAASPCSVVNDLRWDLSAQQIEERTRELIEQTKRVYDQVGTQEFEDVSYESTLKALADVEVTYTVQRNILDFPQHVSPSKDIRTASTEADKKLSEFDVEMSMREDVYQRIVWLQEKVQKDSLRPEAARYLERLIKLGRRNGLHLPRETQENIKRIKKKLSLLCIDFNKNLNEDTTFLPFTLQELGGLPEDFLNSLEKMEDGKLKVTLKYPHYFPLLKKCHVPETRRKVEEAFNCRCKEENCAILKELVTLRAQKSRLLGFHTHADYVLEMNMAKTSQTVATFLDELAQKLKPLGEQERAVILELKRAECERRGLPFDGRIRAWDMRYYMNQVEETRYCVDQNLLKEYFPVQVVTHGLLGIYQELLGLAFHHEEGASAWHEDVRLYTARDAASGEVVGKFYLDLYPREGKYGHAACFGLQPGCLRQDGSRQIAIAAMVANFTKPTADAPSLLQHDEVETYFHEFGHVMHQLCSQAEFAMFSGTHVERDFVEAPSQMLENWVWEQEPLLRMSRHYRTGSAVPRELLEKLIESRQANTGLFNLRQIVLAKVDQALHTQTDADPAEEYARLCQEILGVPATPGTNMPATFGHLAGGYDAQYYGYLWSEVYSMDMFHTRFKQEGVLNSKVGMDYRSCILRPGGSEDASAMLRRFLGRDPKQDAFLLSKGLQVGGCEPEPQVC
Procedure: The different protease fractions are monitored for proteolytic activity against iodinated peptide "P1". Incubations are carried out at 37° C. in 50 mM Tris-Cl, pH 7.4, in the presence of 1 mM MgCl2 +1 mM DTT. The proteolytic products are separated by TLC on cellulose microcrystalline plates, using n-butanol:pyridine:acetic acid:water, 15:10:3:12 (v/v), as a solvent, followed by autoradiography. […] ID NO. 1] to His-Ser-Glu-Val-Lys-Met [SEQ, ID NO. 2] were quantified with a Molecular Dynamics ImageQuant™ v3.0 scanning densitometer or a Bioscan system 200 imaging scanner. […] One unit of Met cut metalloprotease activity under these conditions was defined as converting 1 μg of P1 to His-Ser-Glu-Val-Lys-Met [SEQ. ID NO. 2] in 1 min.
Referring now to Table II, the effects of various additives on the activity degrading the synthetic substrate (P1) were examined. The metalloprotease sample as incubated with the appropriate amount of additive and assayed for remaining activity, as described above. Control reactions with no reagent, or containing only the solvent of the reagent were always included. Reactions were allowed to proceed for 45 min at 4° C., except E-64 which was incubated for 15 or 30 min (b and c respectively) and iodoacetamide was incubated at 37° C. for 30 min.
Stock solutions of phenylmethylsulfonyl fluoride (PMSF)", E-64, 1,10 phenanthroline, calpain inhibitor, Z-Phe-Phe-CH2 F (Enzyme Systems Products, Livermore, Calif.) were dissolved in ethanol. […] ZINCOV (Calbiochem, Calif.) and phosphoramidon (Sigma, USA), were also dissolved in water. Pepstatin A was dissolved in methanol. The susceptibility of the protease activity to various divalent cations was determined by including metals at a final concentration of 2 mM in the assay reaction mixture.

[2] = tested on: Ca2+ activated serine protease (serine AD proteolytic factor) from AD brain; assay: Peptide degradation assay (125I-P1, TLC) with the serine AD proteolytic factor and inhibitors; assay type: biochemical, human
[3] = reagent conc. 1.0 mM, 45 min at 4° C.
[4] = concentrations as in Table II (iodoacetamide 8.0 mM, leupeptin 0.2 mM), read-out: partial inhibitory effect on the protease

CC(C)CC(C(=O)NO)C(=O)N[C@@H](C)C(=O)NCC(N)=O (stereo partly shown) [ZINCOV]
effect on metalloprotease activity (in words) [1]: Strong inhibition | % Activity Remaining [1, 3]: 42.4%

albumin
effect on cleavage of 125I-P1 by the serine AD proteolytic factor (in words) [2]: did not influence the activity

CC(C)CC(=O)N[C@H](C(=O)N[C@H](C(=O)N[C@@H](CC(C)C)[C@@H](O)CC(=O)N[C@@H](C)C(=O)N[C@@H](CC(C)C)[C@@H](O)CC(=O)O)C(C)C)C(C)C [Pepstatin A] (Isovaleryl-VV[Sta]A[Sta]-OH)
remaining activity at 150 µM ([1]; 45 min at 4° C.): 100%

O=S(=O)(F)Cc1ccccc1 [PMSF, phenylmethylsulfonyl fluoride]
% Activity Remaining ([1]; reagent conc. 7.0 mM, 45 min at 4° C.): 100%

CC(C)C[C@H](NP(=O)(O)O[C@@H]1O[C@@H](C)[C@H](O)[C@@H](O)[C@H]1O)C(=O)N[C@@H](Cc1c[nH]c2ccccc12)C(=O)O [Phosphoramidon]
remaining activity at 1000 µM [1, 3]: 89.5%

O[C@H](CS)[C@H](O)CS (racemic) [Dithiothreitol, dithiothreitol]
effect on metalloprotease activity (in words) [1]: required for the activity | % Activity Remaining ([1]; reagent conc. 0.0 mM): 0% | remaining activity at 1000 µM [1, 3]: 100% | remaining activity at 2500 µM ([1]; reagent conc. 2.5 mM): 70.8% | remaining activity at 5000 µM ([1]; 45 min at 4° C.): 25.5%

CC(C)CC(NC(=O)C1OC1C(=O)O)C(=O)NCCCCN=C(N)N (stereo not shown) [E-64]
effect on metalloprotease activity (in words) [1]: less | remaining activity at 140 µM ([1]; incubated 15 min (b)): 57.5% | remaining activity at 140 µM ([1]; incubated 30 min (c)): 27.3%

C[C@H](NC(=O)[C@H](C)NC(CCc1ccccc1)C(=O)O)C(=O)N[C@@H](Cc1ccccc1)C(=O)Nc1ccc(C(=O)O)cc1 (stereo partly drawn) [CPP-Ala-Ala-Phe-pAB]
effect on metalloprotease activity (in words) [1]: strongly inhibited | remaining activity at 15 µM ([1]; reagent conc. 0.015 mM, 45 min at 4° C.): 47.5% | remaining activity at 150 µM ([1]; 45 min at 4° C.): 28%

CC(=O)N[C@@H](CC(C)C)C(=O)N[C@@H](CC(C)C)C(=O)N[C@H](C=O)CCCNC(=N)N [Leupeptin]
inhibition at 200 µM [1, 4]: 36.3% | remaining activity at 200 µM ([1]; 45 min at 4° C.): 63.7%

c1cnc2c(c1)ccc1cccnc12 [1,10 phenanthroline]
effect on metalloprotease activity (in words) [1]: Strong inhibition | remaining activity at 4000 µM ([1]; reagent conc. 4.0 mM, 45 min at 4° C.): 0%

NC(=O)CI [Iodoacetamide]
inhibition at 8000 µM [1, 4]: 34% | remaining activity at 8000 µM ([1]; reagent conc. 8.0 mM, 37° C. for 30 min): 66%

Aprotinin
% Activity Remaining ([1]; reagent conc. 0.03 mM, 45 min at 4° C.): 100%

CC(C)C[C@H](NC(=O)[C@@H](O)[C@H](N)Cc1ccccc1)C(=O)O [Bestatin]
remaining activity at 2 µM ([1]; reagent conc. 0.002 mM, 45 min at 4° C.): 60%

O=C(O)c1cc[c]([Hg][OH])cc1 [Hydroxymercurybenzoate, hydroxymercurybenzoate]
effect on metalloprotease activity (in words) [1]: strong inhibition | % Activity Remaining ([1]; reagent conc. 1.6 mM, 45 min at 4° C.): 0% | reversal of inhibition by the reducing agent (DTT) ([1]; stoichiometrically increasing concentrations of DTT): readily reversed

O=C(N[C@@H](Cc1ccccc1)C(=O)N[C@@H](Cc1ccccc1)C(=O)CF)OCc1ccccc1 [Z-Phe-Phe-CH2F] (Cbz-Phe-Phe-CH2F)
remaining activity at 200 µM ([1]; 45 min at 4° C.): 82.7%

O=C(O)CN(CCOCCOCCN(CC(=O)O)CC(=O)O)CC(=O)O [EGTA]
effect on metalloprotease activity (in words) [1]: Strong inhibition | remaining activity at 7500 µM ([1]; reagent conc. 7.5 mM, 45 min at 4° C.): 0% | effect on cleavage of 125I-P1 by the serine AD proteolytic factor (in words) [2]: prevent cleavage

CCN1C(=O)C=CC1=O [N-ethylmaleimide]
effect on metalloprotease activity (in words) [1]: strong inhibition | remaining activity at 5000 µM ([1]; 45 min at 4° C.): 7.9%

B1: protease nexin 1: protease nexin 1 (protein, UniProt P07093 20-398, looked up)
Glia-derived nexin: SHFNPLSLEELGSNTGIQVFNQIVKSRPHDNIVISPHGIASVLGMLQLGADGRTKKQLAMVMRYGVNGVGKILKKINKAIVSKKNKDIVTVANAVFVKNASEIEVPFVTRNKDVFQCEVRNVNFEDPASACDSINAWVKNETRDMIDNLLSPDLIDGVLTRLVLVNAVYFKGLWKSRFQPENTKKRTFVAADGKSYQVPMLAQLSVFRCGSTSAPNDLWYNFIELPYHGESISMLIALPTESSTPLSAIIPHISTKTIDSWMSIMVPKRVQVILPKFTAVAQTDLKEPLKVLGITDMFDSSKANFAKITTGSENLHVSHILQKAKIEVSEDGTKASAATTAILIARSSPPWFIVDRPFLFFIRHNPTGAVLFMGQINKP
effect on cleavage of 125I-P1 by the serine AD proteolytic factor (in words) [2]: did not influence the activity

B2: ACT: serine protease inhibitor α1-antichymotrypsin (Calbiochem) (protein, UniProt P01011 24-423, looked up)
Alpha-1-antichymotrypsin: HPNSPLDEENLTQENQDRGTHVDLGLASANVDFAFSLYKQLVLKAPDKNVIFSPLSISTALAFLSLGAHNTTLTEILKGLKFNLTETSEAEIHQSFQHLLRTLNQSSDELQLSMGNAMFVKEQLSLLDRFTEDAKRLYGSEAFATDFQDSAAAKKLINDYVKNGTRGKITDLIKDLDSQTMMVLVNYIFFKAKWEMPFDPQDTHQSRFYLSKKKWVMVPMMSLHHLTIPYFRDEELSCTVVELKYTGNASALFILPDQDKMEEVEAMLLPETLKRWRDSLEFREIGELYLPKFSISRDYNLNDILLQLGIEEAFTSKADLSGITGARNLAVSQVVHKAVLDVFEEGTEASAATAVKITLLSALVETRTIVRFNRPFLMIIVPTDTQNIFFMSKVTNPKQA
effect on cleavage of 125I-P1 by the serine AD proteolytic factor (in words) [2]: inhibited cleavage

B3: Soybean Trypsin Inhibitor: Soybean Trypsin Inhibitor, protease inhibitor tested in Table II (protein, UniProt P01070 25-205, looked up)
Trypsin inhibitor A: DFVLDNEGNPLENGGTYYILSDITAFGGIRAAPTGNERCPLTVVQSRNELDKGIGTIISSPYRIRFIAEGHPLSLKFDSFAVIMLCVGIPTEWSVVEDLPEGPAVKIGENKDAMDGWFRLERVSDDEFNNYKLVFCPQQAEDDKCGDIGISIDHDDGTRRLVVSKNKPLVVQFQKLDKESL
% Activity Remaining ([1]; reagent conc. 0.01 mM, 45 min at 4° C.): 100%
